Results on 5 compounds are retold here after ChEMBL document CHEMBL1149649, “Synthesis and anti-influenza activities of carboxyl alkoxyalkyl esters of 4-guanidino-Neu5Ac2en (zanamivir)” (Bioorg Med Chem Lett, 2007).

Data set [1] deals with Influenza A virus. Put plainly: Antiviral activity against influenza A/Jifang/15/90 (H3N2) virus in MDCK cells by CPE assay. Type of data set: functional, organism-based.
Data set [2] deals with Influenza B virus. Put plainly: Antiviral activity against influenza B/Jingfang/76/98 in MDCK cells by CPE assay. Type of data set: functional, organism-based.
The test system of data set [3] is Influenza A virus. The data set is described as follows: Antiviral activity against influenza A/Hanfang/359/95 (H3N2) virus in MDCK cells by CPE assay. Type of data set: functional, organism-based.
Data set [4] has as its system Influenza A virus. The data set is described as follows: Antiviral activity against influenza A/Jingfang/262/95(H1N1) virus in MDCK cells by CPE assay. Type of data set: functional, organism-based.
The subject of data set [5] is Influenza A virus. Put plainly: Antiviral activity against influenza A/Yuefang/243/72 (H3N2) virus in MDCK cells by CPE assay. Type of data set: functional, organism-based.
The subject of data set [6] is Influenza B virus. Put plainly: Antiviral activity against influenza B/Sichuan/83/2000 virus in MDCK cells by CPE assay. Type of data set: functional, organism-based.
Data set [7] relates to Mus musculus. The data set is described as follows: Survival of mouse at 100 mg/kg, ip bid after 5 days. The arrangement: dose 100 mg/kg, route intraperitoneal. The note with it: in vivo, 120 h. Type of data set: ADME, organism-based.
Data set [8] has as its system Influenza B virus. Put plainly: Antiviral activity against influenza B/Jifang/13/97 virus in MDCK cells by CPE assay. Type of data set: functional, organism-based.
In data set [9] the test system is Influenza A virus. The data set is described as follows: Antiviral activity against influenza A/Jingfang/Fm1 (H1N1) infected in mouse assessed as mean survival time of mouse at 100 mg/kg, ip bid after 2 hrs of viral infection for 5 days. Type of data set: functional. The note with it: route intraperitoneal.
The subject of data set [10] is Mus musculus. Put plainly: Weight change in mouse at 100 mg/kg, ip bid after 14 days. Type of data set: ADME, organism-based. The arrangement: dose 100 mg/kg, route intraperitoneal. The following applies: in vivo, 336 h.
Data set [11] relates to Mus musculus. The data set is described as follows: Weight change in mouse at 31.25 mg/kg, po bid after 14 days. The following applies: in vivo, 336 h. Type of data set: ADME, organism-based. Also on record: dose 31.25 mg/kg, route oral.
The test system of data set [12] is Mus musculus. Put plainly: Survival of mouse at 62.5 mg/kg, ip bid after 5 days. The following applies: in vivo, 120 h. The arrangement: dose 62.5 mg/kg, route intraperitoneal. Type of data set: ADME, organism-based.
Data set [13] relates to Mus musculus. Put plainly: Weight change in mouse at 62.5 mg/kg, po bid after 14 days. Type of data set: ADME, organism-based. The arrangement: dose 62.5 mg/kg, route oral. The following applies: in vivo, 336 h.
Data set [14] has as its system Mus musculus. The data set is described as follows: Weight change in mouse at 125 mg/kg, po bid after 14 days. Type of data set: ADME, organism-based. The arrangement: dose 125 mg/kg, route oral. The note with it: in vivo, 336 h.
Data set [15] has as its system Influenza A virus. Put plainly: Antiviral activity against influenza A/Jingfang/Fm1 (H1N1) infected in mouse assessed as survival of mouse at 62.5 mg/kg, po bid after 2 hrs of viral infection for 5 days. Type of data set: functional.
Data set [16] deals with Influenza A virus. Put plainly: Antiviral activity against influenza A/Jingfang/Fm1 (H1N1) virus infected in mouse assessed as survival of mouse at 125 mg/kg, po bid after 2 hrs of viral infection for 5 days. Type of data set: functional.
Data set [17] concerns Mus musculus. The data set is described as follows: Survival of mouse at 125 mg/kg, po bid after 5 days. Type of data set: ADME, organism-based. Also on record: dose 125 mg/kg, route oral. The note with it: in vivo, 120 h.
In data set [18] the test system is Influenza A virus. Put plainly: Antiviral activity against influenza A/Jingfang/Fm1 (H1N1) infected in mouse assessed as survival of mouse at 31.25 mg/kg, po bid after 2 hrs of viral infection for 5 days. Type of data set: functional.
In data set [19] the test system is Mus musculus. Put plainly: Weight change in mouse at 62.5 mg/kg, ip bid after 14 days. Type of data set: ADME, organism-based. Also on record: dose 62.5 mg/kg, route intraperitoneal. The following applies: in vivo, 336 h.
Data set [20] has as its system Influenza A virus. Put plainly: Antiviral activity against influenza A/Jingfang/Fm1 (H1N1) infected in mouse assessed as survival of mouse at 62.5 mg/kg, ip bid after 2 hrs of viral infection for 5 days. Type of data set: functional. The following applies: route intraperitoneal.
The test system of data set [21] is Influenza A virus. The data set is described as follows: Antiviral activity against influenza A/Jingfang/Fm1 (H1N1) infected in mouse assessed as mean survival time of mouse at 31.25 mg/kg, po bid after 2 hrs of viral infection for 5 days. Type of data set: functional.
Data set [22] has as its system Influenza A virus. The data set is described as follows: Antiviral activity against influenza A/Jingfang/Fm1 (H1N1) infected in mouse assessed as mean survival time of mouse at 125 mg/kg, po bid after 2 hrs of viral infection for 5 days. Type of data set: functional.
Data set [23] has as its system Influenza A virus. Put plainly: Antiviral activity against influenza A/Jingfang/Fm1 (H1N1) infected in mouse assessed as mean survival time of mouse at 62.5 mg/kg, ip bid after 2 hrs of viral infection for 5 days. Type of data set: functional. The following applies: route intraperitoneal.
Data set [24] concerns Mus musculus. Put plainly: Survival of mouse at 62.5 mg/kg, po bid after 5 days. Type of data set: ADME, organism-based. The arrangement: dose 62.5 mg/kg, route oral. The note with it: in vivo, 120 h.
Data set [25] relates to Influenza A virus. The data set is described as follows: Antiviral activity against influenza A/Jingfang/Fm1 (H1N1) infected in mouse assessed as mean survival time of mouse at 62.5 mg/kg, po bid after 2 hrs of viral infection for 5 days. Type of data set: functional.
Data set [26] concerns Mus musculus. Put plainly: Survival of mouse at 31.25 mg/kg, po bid after 5 days. Type of data set: ADME, organism-based. The arrangement: dose 31.25 mg/kg, route oral. The note with it: in vivo, 120 h.

What is called IC50 is the concentration that gives 50% inhibition. Read a low IC50 as higher potency. `CC(=O)N[C@H]1[C@H]([C@H](O)[C@H](O)CO)OC(C(=O)O)=C[C@@H]1NC(=N)N` [ZANAMIVIR]: the IC50 in the data set on Influenza A virus [1] came to 0.469 µM; with Influenza B virus [2], 223 µM; in the data set with Influenza A virus [3], 0.385 µM; in the data set on Influenza A virus [4] (mdck), 16.7 µM; in the data set with Influenza A virus [5], 0.075 µM; with Influenza B virus [6], 1580 µM.

`NC(=O)c1ncn([C@@H]2O[C@H](CO)[C@@H](O)[C@H]2O)n1` [RIBAVIRIN]: the IC50 is 5.04 µM with Influenza A virus [1]; 15.2 µM in the data set with Influenza B virus [2]; 7.01 µM in the data set on Influenza A virus [3]; 176 µM with Influenza A virus [4] (Influenza A virus, MDCK); 96.2 µM in the data set with Influenza B virus [8]; 5.85 µM with Influenza A virus [5]. Also, in the data set with Influenza B virus [6], the half-maximal inhibitory concentration (IC50) came to 164 µM. Also, the Activity entry was “Active” in the data set with Mus musculus [7], 14 days in the data set on Influenza A virus [9] and 11.5 g in the data set with Mus musculus [10].

Consider `CCCCCCCCCCCCCCOCCCOC(=O)C1=C[C@H](NC(=N)N)[C@@H](NC(C)=O)[C@H]([C@H](O)[C@H](O)CO)O1`, for which the half-inhibitory concentration (IC50) turned out to be 2.49 µM in the data set on Influenza A virus [1]; 23.3 µM in the data set with Influenza B virus [2]; 1.06 µM in the data set with Influenza A virus [3]; 18.9 µM with Influenza A virus [4] (Influenza A virus, MDCK); 31.5 µM in the data set on Influenza B virus [8]; 0.315 µM with Influenza A virus [5]. The compound also displayed an IC50 in the data set on Influenza B virus [6] of 37.8 µM.

For the compound `CCCCCCCCCCCCCCCCOCCCOC(=O)C1=C[C@H](NC(=N)N)[C@@H](NC(C)=O)[C@H]([C@H](O)[C@H](O)CO)O1`, the 50% inhibitory concentration (IC50) in the data set with Influenza A virus [1] was determined as 3.01 µM; in the data set with Influenza B virus [2], 22.3 µM; in the data set with Influenza A virus [3] it was 3.06 µM; in the data set on Influenza A virus [4] (Influenza A virus, MDCK) it was 18.1 µM; in the data set with Influenza B virus [8], 23.4 µM; in the data set with Influenza A virus [5], 0.301 µM. Moreover, in the data set on Influenza B virus [6], the IC50 came to 22.3 µM.

With `CCCCCCCCCCCCCCCCCCOCCOC(=O)C1=C[C@H](NC(=N)N)[C@@H](NC(C)=O)[C@H]([C@H](O)[C@H](O)CO)O1`, the Activity in the data set with Mus musculus [11] is reported as 12.7 g; in the data set with Mus musculus [12], “Active”; in the data set with Mus musculus [13], 13.5 g; in the data set on Mus musculus [14] it was 12.5 g; in the data set on Mus musculus [17] it was “Active”; in the data set on Mus musculus [19] it was 13.9 g. Besides, the Activity in the data set with Influenza A virus [21] was 9.1 days; in the data set on Influenza A virus [22] it was 11.2 days; with Influenza A virus [23], 11.5 days; in the data set with Mus musculus [24], “Active”; with Influenza A virus [25], 10.2 days; in the data set on Mus musculus [26], “Active”. Also, the IC50 is 2.94 µM in the data set with Influenza A virus [1]; 66.6 µM in the data set on Influenza B virus [2]; 5.89 µM with Influenza A virus [3]; 26.8 µM with Influenza A virus [4] (Influenza A virus, MDCK); 247 µM with Influenza B virus [8]; 0.226 µM with Influenza A virus [5]. In the data set with Influenza B virus [6], this compound had an IC50 of 21.8 µM. The survival at 62.5 mg/kg in the data set on Influenza A virus [15] stood at 40%; in the data set on Influenza A virus [20] it was 60%. Moreover, in the data set with Influenza A virus [16], the survival at 125 mg/kg stood at 60%. Moreover, the survival at 31.25 mg/kg in the data set with Influenza A virus [18] came out at 10%.
